How the values were obtained:
[1] = test system: DCs and T cells in LN chip; assay: OVA I model antigen initiating adaptive immune process in the LN chip; format: cell-based, human
DCs and FRCs = assay: CCL19 and CCL21 secretion by DCs and FRCs in paracortical area of LN chip under TNF-α (ELISA); format: cell-based, human; settings: inflammatory conditions affected by TNF-α

| Substance | DC maturation (imDCs to mDCs) ([1]; OVA I as model antigen in LN chip) | T cell activation ([1]; OVA I-induced mDCs vs imDCs) | T cell migration ([1]; OVA I-induced mDCs vs imDCs) | T cell proliferation ([1]; OVA I-induced mDCs vs imDCs) | secretion of CCL19 by DCs and FRCs (DCs and FRCs) | secretion of CCL21 by DCs and FRCs (DCs and FRCs) |
| --- | --- | --- | --- | --- | --- | --- |
| Ovalbimin [OVA I, model antigen (Sigma Aldrich) to initiate the adaptive immune process in the LN chip] | transformed into mDCs | enhanced | enhanced | enhanced |  |  |
| TNF-α |  |  |  |  | increases | increases |

Source: patent publication US20250361469A1, “Lymph Node on a Chip Device and Method” (New York University, priority 2024, published 2025)
